These results are taken from patent US10294202B2, “Pyrrolidinones as herbicides” (FMC Corporation, priority 2013, dated 2019).

The structures appear in SMILES notation.

The test system of one assay is Russian thistle. Kind of assay: Test D pre-/postemergence herbicide test. In kind it is in vivo, Salsola kali. Particulars: for Plant response rating: Postemergence, Russian Thistle, scale 0 to 100; for Plant response rating, Russian Thistle: Preemergence, scale 0 to 100 (0 no effect, 100 complete control). From the text: (§1) Seeds of plant species selected from bluegrass (annual bluegrass, Poa annua), blackgrass (Alopecurus myosuroides), canarygrass (littleseed canarygrass, Phalaris minor), chickweed (common chickweed, Stellaria media), galium (catchweed bedstraw, Galium aparine), bromegrass, downy (downy bromegrass, Bromus tectorum), field poppy (Papaver rhoeas), field violet (Viola arvensis), foxtail, green (green foxtail, Setaria viridis), deadnettle (henbit deadnettle, Lamium amplexicaule), ryegrass, Italian (Italian ryegrass, Lolium multiflorum), kochia (Kochia scoparia), lambsquarters (Chenopodium album), oilseed rape (Brassica napus), pigweed (Amaranthus retroflexus), chamomile (scentless chamomile, Matricaria inodora), Russian thistle (Salsola kali), speedwell (bird's-eye speedwell, Veronica persica), barley, spring (spring barley, Hordeum vulgare), wheat, spring (spring wheat, Triticum aestivum), buckwheat, wild (wild buckwheat, Polygonum convolvulus), mustard, wild (wild mustard, Sinapis arvensis), oat, wild (wild oat, Avena fatua), radish, wild (wild radish, Raphanus raphanistrum), […]), barley, winter (winter barley, Hordeum vulgare), and wheat, winter (winter wheat, Triticum aestivum) were planted into a silt loam soil and treated preemergence with test chemicals formulated in a non-phytotoxic solvent mixture which included a surfactant. At the same time, these species were planted in pots containing Redi-Earth® planting medium (Scotts Company, 14111 Scottslawn Road, Marysville, Ohio 43041) comprising spaghnum peat moss, vermiculite, wetting agent and starter nutrients and treated with postemergence applications of the test chemicals formulated in the same manner. Plants ranged in height from 2 to 18 cm (1- to 4-leaf stage). Treated plants and controls were maintained in a controlled growth environment for 7 to 21 days after which time all species were compared to controls and visually evaluated. Plant response ratings, summarized in Table D, are based on a scale of 0 to 100 where 0 is no effect and 100 is complete control. A dash (-) response means no test result.

In a further assay the test system is radish, wild. Kind of assay: Test D pre-/postemergence herbicide test. In kind it is in vivo, Raphanus raphanistrum. To be noted: for Plant response rating: Postemergence, Radish, Wild, scale 0 to 100; for Plant response rating, Radish, Wild: Preemergence, scale 0 to 100 (0 no effect, 100 complete control).
Text: as §1

The test system of the next assay is johnsongrass. Briefly: Test E preemergence herbicide test. Format: in vivo, Sorghum halepense. The arrangement: key: 0 = no effect, 100 = complete control. From the text:
(§2) Seeds of plant species selected from corn (Zea mays), soybean (Glycine max), velvetleaf (Abutilon theophrasti), lambsquarters (Chenopodium album), wild poinsettia (Euphorbia heterophylla), pigweed, palmer (palmer pigweed, Amaranthus palmeri), waterhemp (common waterhemp, Amaranthus rudis), surinam grass (Brachiaria decumbens), crabgrass, large (large crabgrass, Digitaria sanguinalis), crabgrass, Brazil (Brazilian crabgrass, Digitaria horizontalis), panicum, fall (fall panicum, Panicum dichotomiflorum), foxtail, giant (giant foxtail, Setaria faberii), foxtail, green (green foxtail, Setaria viridis), goosegrass (Eleusine indica), johnsongrass (Sorghum halepense), ragweed (common ragweed, Ambrosia elatior), barnyardgrass (Echinochloa crus-galli), sandbur (southern sandbur, Cenchrus echinatus), arrowleaf […] rhombifolia), ryegrass, Italian (Italian ryegrass, Lolium multiflorum), dayflower, VA (Virginia dayflower, Commelina virginica), field bindweed (Convolvulus arvensis), morningglory (Ipomoea coccinea), nightshade (eastern black nightshade, Solanum ptycanthum), kochia (Kochia scoparia), nutsedge, yellow (yellow nutsedge, Cyperus esculentus), cocklebur (common cocklebur, Xanthium strumarium), smartweed (ladysthumb smartweed, Polygonum Persicaria) and beggarticks (hairy beggarticks, Bidens pilosa), were planted into a silt loam soil and treated preemergence with test chemicals formulated in a non-phytotoxic solvent mixture which included a surfactant. Treated plants and controls were maintained in a greenhouse for 21 days, after which time all species were compared to controls and visually evaluated. Plant response ratings, summarized in Table E, are based on a scale of 0 to 100 where 0 is no effect and 100 is complete control. A dash (-) response means no test result.

For the next assay, the system named is dayflower, VA. Briefly: Test E preemergence herbicide test. In kind it is in vivo, Commelina virginica. The arrangement: key: 0 = no effect, 100 = complete control.
Text: as §2

In the case of `O=C1NCC(c2ccc(F)c(F)c2)C1C(=O)Nc1ccccc1C(F)(F)F` (racemic) [Compound 6], the Plant response rating with Russian thistle (16 g ai/ha) turned out to be 0; in the assay with Russian thistle (31 g ai/ha) it was 0; in the assay with Russian thistle (62 g ai/ha) it was 0; with Russian thistle (125 g ai/ha), 0; in the assay on Russian thistle (250 g ai/ha), 100; in the assay on radish, wild (16 g ai/ha), 0. Further, the Plant response rating was found to be 0 in the assay with radish, wild (31 g ai/ha); 0 in the assay with radish, wild (62 g ai/ha); 0 with radish, wild (125 g ai/ha); 10 in the assay on radish, wild (250 g ai/ha). For the same molecule, the “Plant response rating, Russian Thistle” value in the assay on Russian thistle (62 g ai/ha) came out at 0; with Russian thistle (125 g ai/ha), 10; in the assay on Russian thistle (16 g ai/ha), 0; with Russian thistle (31 g ai/ha), 0; in the assay with Russian thistle (250 g ai/ha) it was 30. Further, the “Plant response rating, Radish, Wild” value in the assay with radish, wild (16 g ai/ha) is listed as 0.

In the case of `O=C1NCC(c2ccc(Cl)c(Cl)c2)C1C(=O)Nc1ccccc1F` (racemic) [Compound 14], the “Plant response rating, Johnsongrass” value with johnsongrass (16 g ai/ha), in the assay on johnsongrass (31 g ai/ha), with johnsongrass (62 g ai/ha), in the assay with johnsongrass (125 g ai/ha) and with johnsongrass (250 g ai/ha) was 0 in each case. For the same molecule, the “Plant response rating, Dayflower, VA” value in the assay with dayflower, VA (16 g ai/ha) was determined as 0; in the assay with dayflower, VA (31 g ai/ha) it was 0; in the assay on dayflower, VA (62 g ai/ha), 0; with dayflower, VA (125 g ai/ha), 0; in the assay on dayflower, VA (250 g ai/ha) it was 0.

Regarding `O=C1NCC(c2ccc(F)c(C(F)(F)F)c2)C1C(=O)Nc1cccc(F)c1F` (racemic) [Compound 77], the “Plant response rating, Radish, Wild” value with radish, wild (62 g ai/ha) came to 10; in the assay on radish, wild (125 g ai/ha), 25; in the assay with radish, wild (31 g ai/ha) it was 0; with radish, wild (250 g ai/ha), 30.

Turning to `O=C1NCC(c2ccc(C(F)(F)F)cc2)C1C(=O)Nc1cccc(F)c1F` (racemic) [Compound 202], the Plant response rating in the assay with Russian thistle (31 g ai/ha) came to 30; with Russian thistle (62 g ai/ha) it was 30; in the assay on Russian thistle (125 g ai/ha) it was 30; with Russian thistle (250 g ai/ha), 35; in the assay with radish, wild (31 g ai/ha) it was 50; in the assay with radish, wild (62 g ai/ha), 70. Further, the Plant response rating in the assay with radish, wild (125 g ai/ha) was determined as 75; in the assay with radish, wild (250 g ai/ha), 70. For the same molecule, the “Plant response rating, Russian Thistle” value stood at 20 in the assay on Russian thistle (62 g ai/ha), 35 with Russian thistle (125 g ai/ha), 15 in the assay with Russian thistle (31 g ai/ha) and 40 in the assay with Russian thistle (250 g ai/ha). In addition, the “Plant response rating, Radish, Wild” value with radish, wild (62 g ai/ha) is on record as 0; with radish, wild (125 g ai/ha), 0; with radish, wild (31 g ai/ha) it was 0; in the assay with radish, wild (250 g ai/ha), 80. The “Plant response rating, Johnsongrass” value with johnsongrass (31 g ai/ha) is 0; in the assay with johnsongrass (62 g ai/ha), 0; in the assay with johnsongrass (125 g ai/ha), 20; in the assay with johnsongrass (250 g ai/ha), 25. The “Plant response rating, Dayflower, VA” value in the assay on dayflower, VA (31 g ai/ha) was determined as 0; with dayflower, VA (62 g ai/ha) it was 0; with dayflower, VA (125 g ai/ha), 0; with dayflower, VA (250 g ai/ha) it was 40.

On to `O=C1NCC(c2ccc(OC(F)F)cc2)C1C(=O)Nc1cccc(F)c1F` (racemic) [Compound 350], for which the “Plant response rating, Johnsongrass” value with johnsongrass (31 g ai/ha), in the assay with johnsongrass (62 g ai/ha), in the assay with johnsongrass (125 g ai/ha) and with johnsongrass (250 g ai/ha) was 0 each time. Also, the “Plant response rating, Dayflower, VA” value in the assay with dayflower, VA (31 g ai/ha) is 0; with dayflower, VA (62 g ai/ha) it was 0; with dayflower, VA (125 g ai/ha) it was 0; with dayflower, VA (250 g ai/ha), 40.

For `O=C1NCC(c2cc(F)c(F)cc2F)C1C(=O)Nc1cccc(F)c1F` (stereo not shown) [Compound 50], the Plant response rating in the assay on Russian thistle (16 g ai/ha) is on record as 5; with Russian thistle (31 g ai/ha), 0; in the assay on Russian thistle (62 g ai/ha), 10; with Russian thistle (125 g ai/ha), 5; in the assay with radish, wild (16 g ai/ha), 0; with radish, wild (31 g ai/ha), 0. In addition, the Plant response rating in the assay on radish, wild (62 g ai/ha) worked out at 0; in the assay with radish, wild (125 g ai/ha), 0. The “Plant response rating, Russian Thistle” value with Russian thistle (62 g ai/ha), in the assay on Russian thistle (125 g ai/ha), in the assay on Russian thistle (16 g ai/ha) and with Russian thistle (31 g ai/ha) was 0 throughout. For the same molecule, the “Plant response rating, Radish, Wild” value in the assay with radish, wild (62 g ai/ha) was found to be 0; in the assay on radish, wild (16 g ai/ha), 0.

Regarding `O=C1NCC(c2ccc(Cl)c(F)c2)C1C(=O)Nc1cccc(F)c1F` (stereo not shown) [Compound 52], the Plant response rating with Russian thistle (16 g ai/ha), with Russian thistle (31 g ai/ha), with Russian thistle (62 g ai/ha), with Russian thistle (125 g ai/ha) and in the assay with Russian thistle (250 g ai/ha) was 0 throughout. In addition, the “Plant response rating, Russian Thistle” value came to 0 in the assay on Russian thistle (62 g ai/ha); 20 with Russian thistle (125 g ai/ha); 0 in the assay with Russian thistle (16 g ai/ha); 0 in the assay on Russian thistle (31 g ai/ha); 30 in the assay on Russian thistle (250 g ai/ha). The “Plant response rating, Radish, Wild” value in the assay with radish, wild (16 g ai/ha) was found to be 0.

For the molecule `O=C1NCC(c2ccc(C(F)(F)F)cc2)C1C(=O)Nc1ccccc1F` (stereo not shown) [Compound 231], the Plant response rating in the assay on Russian thistle (31 g ai/ha) was found to be 20; in the assay with Russian thistle (62 g ai/ha) it was 35; in the assay on Russian thistle (125 g ai/ha), 35; in the assay with Russian thistle (250 g ai/ha) it was 35; with radish, wild (31 g ai/ha), 30; with radish, wild (62 g ai/ha) it was 70. The Plant response rating in the assay with radish, wild (125 g ai/ha) was 75; in the assay with radish, wild (250 g ai/ha), 70. The “Plant response rating, Russian Thistle” value in the assay on Russian thistle (62 g ai/ha) worked out at 5; in the assay on Russian thistle (125 g ai/ha), 15; in the assay with Russian thistle (31 g ai/ha), 0; in the assay with Russian thistle (250 g ai/ha), 30. For the same molecule, the “Plant response rating, Radish, Wild” value with radish, wild (62 g ai/ha) is reported as 0; in the assay on radish, wild (125 g ai/ha) it was 0; in the assay on radish, wild (31 g ai/ha), 0; in the assay with radish, wild (250 g ai/ha), 0.
